# Experimental data taken from US20090264492A1, “PHARMACEUTICAL COMPOSITION FOR THE TREATMENT OF A FUNGAL SKIN DISORDER AND A METHOD FOR THE PREPARATION THEREOF” (Stichting Voor de Technische Wetenschappen, priority 2006, published 2009).
# Tests used:
# T. rubrum = assay: PDT of T. rubrum on human stratum corneum (ex-vivo model), fungicidal effect; format: cell-based, Trichophyton rubrum; conditions: acidic pH versus pH 7.4
# Procedure: A polycarbonate membrane filter, 25 mm in diameter and a pore size of 2 μm (Whatman, Breda, The Netherlands) was placed in the central part of a 3 cm culture dish (Greiner, Alphen aan den Rijn, The Netherlands) filled with 5 ml of Malt Extract Agar (MEA). A circular piece of human stratum corneum (SC) with a diameter of 1 cm was subsequently placed on the membrane filter and both were gently brushed with a paintbrush dipped in 70% ethanol. A microconidia suspension isolated from Trichphyton rubrum (CBS nr. 304.60 obtained from Centraal Bureau voor Schimmelcultures, Utrecht, The Netherlands, and prepared as described by Smijs G. M. T. et al (2004) in “Photodynamic treatment of the dermatophyte Trichophyton Rubrum and its microconidia with porphyrin sensitizers. PhotoChemistry and PhotoBiology, 80, 197 - 202”) was diluted to 1000 CFU/ml and 15 μl was inoculated on the circular sheet of human SC. The dish was placed in an incubator at 28° C. and at 17 hours after spore inoculation photodynamic treatment (PDT) was applied.
# At 17 hours after spore inoculation, the membrane filter with SC containing spore inoculates was transported from the MEA dish to a 3 cm culture dish filled with 1035 μl incubation medium. The incubation medium contained 1 ml of distilled water with an adjusted pH (3.5, 4.5, 5.2, or 7.4) and 35 μl of a Sylsens B stock solution (Buchem, Apeldoorn, the Nederland) . To optimize the contact of the inoculates with the incubation medium, the membrane filter with the SC was turned upside down during the incubation period of 2 hours. The incubation was performed under continuous shaking conditions. Shortly before the illumination period the membrane filter containing the SC was turned back (surface SC now faces the lamp). In all cases, the illumination time was 1 hour using a red light irradiance of 30 mW/cm^2. This corresponds to a light dose of 108 J/cm^2. After the illumination the membrane filter with the SC were transported to a fresh MEA dish, placed in a 28° C. incubator and fungal growth was followed for several weeks. Dark controls were included, i.e. the same procedure was carried out except that the inoculated microconidia on human skin were treated with solvent and/or photosensitizer in the dark. In the light controls, the microconidia were treated with solvent (only) in the presence of light. The efficacy of the treatment was expressed as a relative frequency of complete inactivation (killing) of fungal growth detected at day 8 after spore inoculation. This was assessed microscopically with the use of a Zeiss Axiovert 25 (Germany). […] The treatment effect was followed for a period of several months. Every experiment contained 4 to 6 duplicates of all conditions and the experiments were repeated 3 times at least.
# PDT of T. rubrum 17 hours after spore inoculation using the ex-vivo model, different concentrations of Sylsens B and a different pH (water medium). The numbers indicate the relative frequency of the fungicidal effect^1. Numbers between brackets give the number of tests performed.
# The experiment with Sylsens B was repeated more extensively, for a longer period of time and with more samples. More specifically, the photodynamic efficacy of Sylsens B towards T. rubrum was tested at 17 (FIG. 2a), 48 (FIG. 2b) and 72 hours (FIG. 2c) after spore inoculation on human SC, at the following incubation pH values: Filled diamonds: pH 3.5, filled squares: pH 5.2 and filled triangles: pH 7.4.
# [1] = test system: the fungus cultivated in suspension; assay: binding of Sylsens B to the fungus cultivated in suspension / photodynamic effect with competing cations; format: cell-based, T. rubrum; conditions: Alcian Blue 160 μM versus Sylsens B 160 μM
# Procedure: In the above experiments, deuteroporphyrin monomethylether (DP mme), an anionic porphyrin, was used as a control. […] The effect of calcium-ions was investigated by determining the photodynamic effect in the presence of 5 mM CaCl2 at pH 5.2. […] So, PDT may even be used to inactivate (kill) the growing fungus if measures are taken to prevent naturally present calcium from interfering with the treatment, in particular by using a chelating compound such as EDTA.
Molecule,effect of acidic pH on photodynamic activity (T. rubrum),competition for binding to the fungus [1]
"C[n+]1ccc(-c2c3nc(c(-c4cc[n+](C)cc4)c4ccc([nH]4)c(-c4cc[n+](C)cc4)c4nc(c(-c5cc[n+](C)cc5)c5ccc2[nH]5)C=C4)C=C3)cc1.[Cl-].[Cl-].[Cl-].[Cl-] [meso-tetra(N-methyl-4-pyridyl)porphyrin tetrachloride, reference compound]","improved activity at acidic pH, albeit to a lesser extent than Sylsens B",–
"deuteroporphyrin monomethylether [DP mme, reference compound]",failed to display the observed pH effect,–
Alcian Blue [reference compound],–,competed with Sylsens B
